{"source": "paper PMC7744527", "about": "“The structure of SeviL, a GM1b/asialo-GM1 binding R-type lectin from the mussel Mytilisepta virgata” (Scientific Reports, 2020)", "molecules": {"B1": {"name": "SeviL (natural protein, Mytilisepta virgata)", "chain": "MSSVTIGKCYIQNRENGGRAFYNLGRKDLGIFTGKMYDDQIWSFQKSDTPGYYTIGRESKFLQYNGEQVIMSDIEQDTTLWSLEEVPEDKGFYRLLNKVHKAYLDYNGGDLVANKHQTESEKWILFKAY", "notes": "some N-terminal residues remain after removal of the histidine tag by thrombin; also called recombinant SeviL; wild-type SeviL; source: recombinant, expressed in bacteria, purified (details in Supplementary Information); not shown: histidine tag, N-terminal, cleaved"}, "B2": {"name": "SeviL (Q12R/F126K): SeviL double mutant at the dimer interface, almost entirely monomeric, retains sugar binding (protein)", "chain": "MSSVTIGKCYIRNRENGGRAFYNLGRKDLGIFTGKMYDDQIWSFQKSDTPGYYTIGRESKFLQYNGEQVIMSDIEQDTTLWSLEEVPEDKGFYRLLNKVHKAYLDYNGGDLVANKHQTESEKWILKKAY", "modifications": "left off: histidine tag, N-terminal, cleaved"}, "B3": {"name": "SeviL: recombinant 129 residue dimeric β-trefoil R-type lectin from the mussel Mytilisepta virgata (protein)", "chain": "MSSVTIGKCYIQNRENGGRAFYNLGRKDLGIFTGKMYDDQIWSFQKSDTPGYYTIGRESKFLQYNGEQVIMSDIEQDTTLWSLEEVPEDKGFYRLLNKVHKAYLDYNGGDLVANKHQTESEKWILFKAY", "modifications": "left off: histidine tag, N-terminal, cleaved", "notes": "recombinant 129 residue dimeric β-trefoil R-type lectin from the mussel Mytilisepta virgata"}}, "key": {"SeviL [1]": {"biological_target": "T1, SeviL (Mytilisepta virgata, UniProt A0A646QV53)", "T1 construct": "This vector directs expression of full-length SeviL carrying a thrombin-cleavable hexa-histidine tag; hexa-histidine tag (thrombin-cleavable; leaves residual GSH before the native Met) (N, cleaved yes); made in house; host or cells: E. coli BL21(DE3)", "test": "biochemical", "assay_type": "binding", "protocol": "(§1) Experimental details are given in Methods/Isothermal Titration Calorimetry. […] ITC experiments were repeated with the monomer mutant SeviL (Q12R/F126K). […] Errors in Kd for the native protein and monomer were determined from triplicate experiments. To produce a stronger signal and lower noise, further experiments were attempted with the concentrations of the native protein and ligand increased ten-fold. […] Different stereo views of the interaction between protein and ligand are shown in SFigure 11.\n(§2) Figure 5 (A) A thermogram produced by injecting 1 mM asialo-GM1 saccharide into 50 μ M SeviL. The experiment was repeated three times, each thermogram being fitted to a one-site model (shown as a black line). Dissociation constants were calculated as weighted averages, and errors were calculated as weighted standard deviations, using the reciprocal chi-square values of each individual fit as weights.\nExperiments were performed using a MicroCal iTC200 (GE) instrument. The sample of SeviL (in 50 mM phosphate buffer, pH 6.8, 0.1 M NaCl) was placed in the cell, and equilibrated at 298 K. The selected ligand was dissolved in the same buffer, and injected into the protein sample (with 20 injections of 10 μ L each), allowing the baseline to stabilise between injections. The data were analysed using the manufacturer’s software, assuming a simple single site model, to yield a Kd value and chi-square value from each experiment. […] Asialo-GM1 and GM1b were used at 1 mM concentration, each experiment being repeated three times, and errors were determined as the weighted standard deviation of these three values. Higher concentrations of protein and ligand were used in the case of these longer ligands."}, "SeviL [2]": {"biological_target": "T1, SeviL", "settings": "52 oligosaccharides; cited from earlier work"}, "SeviL (Q12R/F126K)": {"biological_target": "T2, SeviL (Q12R/F126K) (Mytilisepta virgata, UniProt A0A646QV53, F126K/Q12R)", "T2 construct": "This vector directs expression of full-length SeviL carrying a thrombin-cleavable hexa-histidine tag; hexa-histidine tag (thrombin-cleavable); made in house; host or cells: E. coli BL21(DE3)", "test": "Isothermal titration calorimetry with monomer mutant SeviL (Q12R/F126K)", "assay_type": "binding", "settings": "1 mM ligand titrated into 50 μM SeviL (Q12R/F126K), one-site model, triplicate", "protocol": "as §1, §2\nExperiments were performed using a MicroCal iTC200 (GE) instrument. […] The data were analysed using the manufacturer’s software, assuming a simple single site model, to yield a Kd value and chi-square value from each experiment. […] Asialo-GM1 and GM1b were used at 1 mM concentration, each experiment being repeated three times, and errors were determined as the weighted standard deviation of these three values. […]"}, "[3]": {"biological_target": "the molecule itself", "test": "AUC; sedimentation velocity, 50,000 rpm, 293 K, 50 mM potassium phosphate pH 6.8, 0.1 M NaCl, absorbance at 280 nm, c(s)/c(M) analysis with SEDFIT; sample concentration printed as 1.0 ug/ml"}, "[4]": {"tested_on": "trypsinised and glutaraldehyde-fixed rabbit erythrocytes", "test": "Hemagglutination assay", "assay_type": "cell-based", "settings": "10 mM CaCl2, 0.25% Triton X-100, 1 h room temperature", "protocol": "Figure 6 Hemagglutination of red blood cells by SeviL. 20 μ L of a two-fold dilution of SeviL (initially 10 mg/mL) were serially diluted and added to the same volume of a red cell suspension containing 0.25% Triton-X100 and 10 mM calcium chloride, and incubated for 1 h at room temperature. Appearance of a dot indicates no agglutination. The number over the wells indicates the protein dilution factor. Top row: dimer SeviL, middle row: dimer SeviL (D39H), and bottom row: monomer SeviL (Q12R/F126K). Column C is a negative control with no added lectin.\nHemagglutination assay was performed in 96-well U-shape plates as described previously. 20 μ L each protein (10 μ g/ml) in TBS was mixed with 20 μ L of a 1% suspension (with TBS; v/v) of trypsinised and glutaraldehyde-fixed rabbit erythrocytes in addition to 20 μ L of TBS containing 0.25% (w/v) Triton X-100 and 10 mM CaCl2. The plate was incubated at room temperature for 1 h, and the formation of a sheet (agglutination-positive) or dot (agglutination-negative) was observed and scored against the lectin titre."}, "[5]": {"tested_on": "mammalian carcinoma cells expressing asialo-GM1", "parameters": "method as in PMID 31769916", "settings": "cited from earlier work"}, "human red cells": {"tested_on": "human red cells", "parameters": "method as in PMID 31769916", "settings": "in the presence of calcium; cited from earlier work"}}, "note": "Where two headings read alike, the source gives them in different places."}
{"molecule": "OC[C@H]1O[C@@H](O[C@H]2[C@H](O)[C@@H](O)C(O)O[C@@H]2CO)[C@H](O)[C@@H](O)[C@H]1O", "note": "(mixture of isomers) [lactose]", "values": [{"measurement": "Kd", "setting": "SeviL [1]", "value": "8000 to 12000", "unit": "µM"}]}
{"molecule": "OC[C@H]1OC(O)[C@H](O)[C@@H](O)[C@@H]1O", "note": "(stereo partly drawn) [Glucose]", "values": [{"measurement": "interaction with the protein (ITC)", "setting": "SeviL [1]; small sugar ligand", "value": "not seen to interact with the protein at all"}]}
{"molecule": "CC(=O)NC1C(O)CC(OC2C(O)C(CO)OC(OC3C(O)C(CO)OC(OC4C(O)C(CO)OC(OC5C(CO)OC(OC6C(CO)OC(O)C(O)C6O)C(O)C5O)C4O)C3NC(C)=O)C2O)(C(=O)O)OC1C(O)C(O)CO", "note": "(stereo not drawn) [SSEA-4, Neu5Ac α (2-3)Gal β (1-3)GalNAc β (1-3)Gal α (1-4)Gal β (1-4)Glc]", "values": [{"measurement": "binding in glycan array", "setting": "SeviL [2]", "value": "weak binding"}]}
{"molecule": "CC(=O)N[C@H]1[C@H](O[C@@H]2[C@H](O)[C@@H](O)[C@H](O[C@H]3[C@H](O)[C@@H](O)C(O)O[C@@H]3CO)O[C@@H]2CO)O[C@H](CO)[C@H](O)[C@@H]1O[C@@H]1O[C@H](CO)[C@H](O)[C@H](O)[C@H]1O", "note": "(stereo partly drawn) [asialo-GM1, Gal β (1-3)GalNAc β (1-4)Gal β (1-4)Glc]", "values": [{"measurement": "Kd", "setting": "SeviL [1]; 1 mM ligand injected into 50 μM SeviL, 298 K, pH 6.8, one-site model, triplicate, weighted average, read-out: Kd", "value": 100, "unit": "µM"}, {"measurement": "Kd", "setting": "SeviL [1]; protein and ligand concentrations increased ten-fold (1 mM SeviL/10 mM asialo-GM1; 0.8 mM SeviL/12 mM GM1b), model of non-interacting sites, read-out: Kd (exothermic and endothermic binding site, each)", "value": "~100", "unit": "µM"}, {"measurement": "Kd", "setting": "SeviL (Q12R/F126K)", "value": 100, "unit": "µM"}, {"measurement": "binding in glycan array", "setting": "SeviL [2]", "value": "bind"}]}
{"molecule": "B1", "values": [{"measurement": "stoichiometry N", "setting": "[3]", "value": 2}]}
{"molecule": "B2", "values": [{"measurement": "hemagglutination", "setting": "[4]", "value": "Hemagglutination is also lost"}]}
{"molecule": "B3", "values": [{"measurement": "hemagglutination", "setting": "[4]", "value": "can trigger hemagglutination at low concentration"}, {"measurement": "effect on carcinoma cells", "setting": "[5]", "value": "activates apoptotic pathways, causing cell death"}, {"measurement": "hemagglutination", "setting": "human red cells", "value": "cause hemagglutination"}]}
